Reference: ChEMBL document CHEMBL1201862, “PubChem BioAssay data set” (2004)
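Dose response: 5 concentrations. Exposure: 48 h. Format: 96-well plates. Endpoint: linear interpolation; highest concentration if not reached. Abbreviation: GI50, concentration required for 50% inhibition of growth.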 Activity calls are given as the source filed them. Cut-off read from the data, not from the text of the source: active = GI50 up to about 1.1 µM and inactive = higher.

Legend:
Assay in all cases: DTP human tumour cell line panel, 48 h
786-0 = tested on: 786-0
A498 = tested on: A498
A549 = tested on: A549
ACHN = tested on: ACHN
BT-549 = tested on: BT-549
CAKI-1 = tested on: CAKI-1
CCRF-CEM = tested on: CCRF-CEM
COLO 205 = tested on: COLO 205
DU-145 = tested on: DU-145
HCC 2998 = tested on: HCC 2998
HCT-116 = tested on: HCT-116
HCT-15 = tested on: HCT-15
HL-60 = tested on: HL-60
HOP-62 = tested on: HOP-62
HOP-92 = tested on: HOP-92
HT-29 = tested on: HT-29
Hs-578T = tested on: Hs-578T
K562 = tested on: K562
KM12 = tested on: KM12
LOX IMVI = tested on: LOX IMVI
M14 = tested on: M14
MCF7 = tested on: MCF7
MDA-MB-231 = tested on: MDA-MB-231
MDA-MB-435 = tested on: MDA-MB-435
MDA-N = tested on: MDA-N
MOLT-4 = tested on: MOLT-4
NCI-H23 = tested on: NCI-H23
NCI-H460 = tested on: NCI-H460
NCI/ADR-RES = tested on: NCI/ADR-RES
OVCAR-3 = tested on: OVCAR-3
OVCAR-5 = tested on: OVCAR-5
OVCAR-8 = tested on: OVCAR-8
PC-3 = tested on: PC-3
RPMI-8226 = tested on: RPMI-8226
RXF 393 = tested on: RXF 393
SF-268 = tested on: SF-268
SF-295 = tested on: SF-295
SF-539 = tested on: SF-539
SK-MEL-28 = tested on: SK-MEL-28
SK-MEL-2 = tested on: SK-MEL-2
SK-MEL-5 = tested on: SK-MEL-5
SK-OV-3 = tested on: SK-OV-3
SN12C = tested on: SN12C
SNB-19 = tested on: SNB-19
SR = tested on: SR
SW-620 = tested on: SW-620
T47D = tested on: T47D
U-251 = tested on: U-251
UACC-257 = tested on: UACC-257
UACC-62 = tested on: UACC-62
UO-31 = tested on: UO-31
EKVX = tested on: EKVX
IGROV-1 = tested on: IGROV-1
Malme-3M = tested on: Malme-3M
NCI-H226 = tested on: NCI-H226
NCI-H522 = tested on: NCI-H522
OVCAR-4 = tested on: OVCAR-4
TK-10 = tested on: TK-10

`O=C(O)c1ccc(C(c2c(O)oc3ccccc3c2=O)c2c(O)oc3ccccc3c2=O)cc1` was tested, and the GI50 (786-0) was > 100000 nM (inactive), the GI50 (A498) was 2920 nM (inactive) and the GI50 (A549) was > 100000 nM (inactive). The GI50 (ACHN) was > 100000 nM (inactive), the GI50 (BT-549) was > 100000 nM (inactive) and the GI50 (CAKI-1) was > 100000 nM (inactive). The GI50 (CCRF-CEM) was 25200 nM (inactive), the GI50 (COLO 205) was 40900 nM (inactive) and the GI50 (DU-145) was > 100000 nM (inactive). For the same compound, the GI50 (HCC 2998) was 29300 nM (inactive), the GI50 (HCT-116) was > 100000 nM (inactive) and the GI50 (HCT-15) was greater than 100000 nM. The GI50 (HL-60) was 39.7 nM (active), the GI50 (HOP-62) was 43000 nM (inactive) and the GI50 (HOP-92) was 2820 nM (inactive). For the same compound, the GI50 (HT-29) was > 100000 nM (inactive), the GI50 (Hs-578T) was 5000 nM (inactive) and the GI50 (K562) was 15500 nM (inactive). For the same compound, the GI50 (KM12) was > 100000 nM (inactive), the GI50 (LOX IMVI) was > 100000 nM (inactive) and the GI50 (M14) was 43100 nM (inactive). The GI50 (MCF7) was > 100000 nM (inactive), the GI50 (MDA-MB-231) was > 100000 nM (inactive) and the GI50 (MDA-MB-435) was > 100000 nM (inactive). The GI50 (MDA-N) was > 100000 nM (inactive), the GI50 (MOLT-4) was > 100000 nM (inactive) and the GI50 (NCI-H23) was 59700 nM (inactive). The GI50 (NCI-H460) was > 100000 nM (inactive), the GI50 (NCI/ADR-RES) was > 100000 nM (inactive) and the GI50 (OVCAR-3) was > 100000 nM (inactive). For the same compound, the GI50 (OVCAR-5) was 86300 nM (inactive), the GI50 (OVCAR-8) was > 100000 nM (inactive) and the GI50 (PC-3) was > 100000 nM (inactive). For the same compound, the GI50 (RPMI-8226) was 1020 nM (active), the GI50 (RXF 393) was > 100000 nM (inactive) and the GI50 (SF-268) was 4970 nM (inactive). For the same compound, the GI50 (SF-295) was > 100000 nM (inactive), the GI50 (SF-539) was > 100000 nM (inactive) and the GI50 (SK-MEL-28) was 15200 nM (inactive). The GI50 (SK-MEL-2) was > 100000 nM (inactive), the GI50 (SK-MEL-5) was > 100000 nM (inactive) and the GI50 (SK-OV-3) was > 100000 nM (inactive). For the same compound, the GI50 (SN12C) was > 100000 nM (inactive), the GI50 (SNB-19) was > 100000 nM (inactive) and the GI50 (SR) was 44300 nM (inactive). For the same compound, the GI50 (SW-620) was > 100000 nM (inactive), the GI50 (T47D) was > 100000 nM (inactive) and the GI50 (U-251) was > 100000 nM (inactive). The GI50 (UACC-257) was > 100000 nM (inactive), the GI50 (UACC-62) was > 100000 nM (inactive) and the GI50 (UO-31) was 14200 nM (inactive).
`O=[N+]([O-])/C=C/c1cn(CCCCCn2cc(/C=C/[N+](=O)[O-])c3ccccc32)c2ccccc12` was tested, and the GI50 (786-0) was 392 nM (active), the GI50 (A498) was 1940 nM (inactive) and the GI50 (A549) was 2960 nM (inactive). For the same compound, the GI50 (ACHN) was 4660 nM (inactive), the GI50 (BT-549) was 1280 nM (inactive) and the GI50 (CAKI-1) was 17700 nM (inactive). The GI50 (CCRF-CEM) was 1040 nM (active), the GI50 (COLO 205) was 4300 nM (inactive) and the GI50 (DU-145) was 2190 nM (inactive). For the same compound, the GI50 (EKVX) was 11600 nM (inactive), the GI50 (HCC 2998) was 1040 nM (active) and the GI50 (HCT-116) was 283 nM (active). For the same compound, the GI50 (HCT-15) was 2170 nM, the GI50 (HL-60) was 787 nM (active) and the GI50 (HOP-62) was 3930 nM (inactive). For the same compound, the GI50 (HOP-92) was 19800 nM (inactive), the GI50 (HT-29) was 1560 nM (inactive) and the GI50 (Hs-578T) was 1870 nM (inactive). The GI50 (IGROV-1) was 2230 nM (inactive), the GI50 (K562) was 830 nM (active) and the GI50 (KM12) was 1690 nM (inactive). The GI50 (LOX IMVI) was 611 nM (active), the GI50 (M14) was 1440 nM (inactive) and the GI50 (MCF7) was 408 nM (active). The GI50 (MDA-MB-231) was 1950 nM (inactive), the GI50 (MDA-MB-435) was 953 nM (active) and the GI50 (MDA-N) was 322 nM (active). The GI50 (MOLT-4) was 3050 nM (inactive), the GI50 (Malme-3M) was 3540 nM (inactive) and the GI50 (NCI-H226) was 805 nM (active). For the same compound, the GI50 (NCI-H23) was 4020 nM (inactive), the GI50 (NCI-H460) was 1790 nM (inactive) and the GI50 (NCI-H522) was 10400 nM (inactive). The GI50 (NCI/ADR-RES) was 10200 nM (inactive), the GI50 (OVCAR-3) was 1780 nM (inactive) and the GI50 (OVCAR-4) was 2440 nM (inactive). For the same compound, the GI50 (OVCAR-5) was 9550 nM (inactive), the GI50 (OVCAR-8) was 3270 nM (inactive) and the GI50 (PC-3) was 3580 nM (inactive). For the same compound, the GI50 (RPMI-8226) was 240 nM (active), the GI50 (RXF 393) was 582 nM (active) and the GI50 (SF-268) was 2180 nM (inactive). The GI50 (SF-295) was 9890 nM (inactive), the GI50 (SF-539) was 1880 nM (inactive) and the GI50 (SK-MEL-28) was 1120 nM (active). For the same compound, the GI50 (SK-MEL-2) was 13500 nM (inactive), the GI50 (SK-MEL-5) was 1750 nM (inactive) and the GI50 (SK-OV-3) was 23200 nM (inactive). For the same compound, the GI50 (SN12C) was 3160 nM (inactive), the GI50 (SNB-19) was 6730 nM (inactive) and the GI50 (SR) was 973 nM (active). For the same compound, the GI50 (SW-620) was 682 nM (active), the GI50 (T47D) was 8220 nM (inactive) and the GI50 (TK-10) was 1820 nM (inactive). The GI50 (U-251) was 1610 nM (inactive), the GI50 (UACC-257) was 3270 nM (inactive) and the GI50 (UACC-62) was 6950 nM (inactive). For the same compound, the GI50 (UO-31) was 3640 nM (inactive).
With `CC(=O)Oc1ccccc1/C=C/C(=O)/C=C/c1ccccc1OC(C)=O` the GI50 (786-0) was 1790 nM (inactive), the GI50 (A498) was 2080 nM (inactive) and the GI50 (A549) was 2260 nM (inactive). The GI50 (ACHN) was 1800 nM (inactive), the GI50 (BT-549) was 1730 nM (inactive) and the GI50 (CAKI-1) was 3750 nM (inactive). For the same compound, the GI50 (CCRF-CEM) was 501 nM (active), the GI50 (COLO 205) was 1890 nM (inactive) and the GI50 (DU-145) was 3080 nM (inactive). For the same compound, the GI50 (EKVX) was 1790 nM (inactive), the GI50 (HCC 2998) was 1880 nM (inactive) and the GI50 (HCT-116) was 239 nM (active). For the same compound, the GI50 (HCT-15) was 2090 nM, the GI50 (HL-60) was 748 nM (active) and the GI50 (HOP-62) was 2440 nM (inactive). The GI50 (HOP-92) was 4110 nM (inactive), the GI50 (HT-29) was 1940 nM (inactive) and the GI50 (Hs-578T) was 3690 nM (inactive). The GI50 (IGROV-1) was 2000 nM (inactive), the GI50 (K562) was 429 nM (active) and the GI50 (KM12) was 1090 nM (active). The GI50 (LOX IMVI) was 640 nM (active), the GI50 (M14) was 1950 nM (inactive) and the GI50 (MCF7) was 959 nM (active). The GI50 (MDA-MB-231) was 2660 nM (inactive), the GI50 (MDA-MB-435) was 2150 nM (inactive) and the GI50 (MDA-N) was 1910 nM (inactive). For the same compound, the GI50 (MOLT-4) was 1360 nM (inactive), the GI50 (Malme-3M) was 2810 nM (inactive) and the GI50 (NCI-H226) was 1810 nM (inactive). For the same compound, the GI50 (NCI-H23) was 1730 nM (inactive), the GI50 (NCI-H460) was 2050 nM (inactive) and the GI50 (NCI-H522) was 1960 nM (inactive). The GI50 (NCI/ADR-RES) was 3330 nM (inactive), the GI50 (OVCAR-3) was 1660 nM (inactive) and the GI50 (OVCAR-4) was 2380 nM (inactive). The GI50 (OVCAR-5) was 2210 nM (inactive), the GI50 (OVCAR-8) was 1940 nM (inactive) and the GI50 (PC-3) was 1650 nM (inactive). The GI50 (RPMI-8226) was 308 nM (active), the GI50 (RXF 393) was 126 nM (active) and the GI50 (SF-268) was 1710 nM (inactive). The GI50 (SF-295) was 2260 nM (inactive), the GI50 (SF-539) was 1740 nM (inactive) and the GI50 (SK-MEL-28) was 1970 nM (inactive). The GI50 (SK-MEL-2) was 3790 nM (inactive), the GI50 (SK-MEL-5) was 1840 nM (inactive) and the GI50 (SK-OV-3) was 4150 nM (inactive). For the same compound, the GI50 (SN12C) was 1900 nM (inactive), the GI50 (SNB-19) was 2390 nM (inactive) and the GI50 (SR) was 867 nM (active). For the same compound, the GI50 (SW-620) was 447 nM (active), the GI50 (T47D) was 3490 nM (inactive) and the GI50 (TK-10) was 3390 nM (inactive). The GI50 (U-251) was 1510 nM (inactive), the GI50 (UACC-257) was 1360 nM (inactive) and the GI50 (UACC-62) was 1640 nM (inactive). The GI50 (UO-31) was 1680 nM (inactive).
